# Experimental data reported in ChEMBL document CHEMBL1201862, “PubChem BioAssay data set” (2004).
#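 Five compound concentrations were applied to cells in 96-well plates for 48 hours; endpoints were derived by simple linear interpolation of the resulting dose-response curve. GI50 marks 50% less growth.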 Calls of active or inactive are those of the source. Rule as the data show it: active = GI50 up to about 1.1 µM and inactive = higher.
# Legend:
# Test in all cases: NCI anticancer screen, dose series, 48 h
# [1] = tested on: EKVX
# [2] = tested on: MDA-MB-435
# [3] = tested on: U-251
# [4] = tested on: MDA-N
# [5] = tested on: RPMI-8226
# [6] = tested on: HT-29
# [7] = tested on: NCI/ADR-RES
# [8] = tested on: OVCAR-8
# [9] = tested on: SW-620
# [10] = tested on: SN12C
# [11] = tested on: NCI-H226
# [12] = tested on: SF-268
# [13] = tested on: OVCAR-3
# [14] = tested on: BT-549
# [15] = tested on: SK-MEL-28
# [16] = tested on: UO-31
# [17] = tested on: HCT-15
# [18] = tested on: MCF7
# [19] = tested on: NCI-H522
# [20] = tested on: MDA-MB-231
# [21] = tested on: NCI-H23
# [22] = tested on: PC-3
# [23] = tested on: DU-145
# [24] = tested on: SF-539
# [25] = tested on: OVCAR-4
# [26] = tested on: UACC-257
# [27] = tested on: SF-295
# [28] = tested on: IGROV-1
# [29] = tested on: ACHN
# [30] = tested on: T47D
# [31] = tested on: KM12
# [32] = tested on: A498
# [33] = tested on: CAKI-1
# [34] = tested on: UACC-62
# [35] = tested on: LOX IMVI
# [36] = tested on: K562
# [37] = tested on: Malme-3M
# [38] = tested on: HOP-62
# [39] = tested on: SK-MEL-5
# [40] = tested on: COLO 205
# [41] = tested on: NCI-H460
# [42] = tested on: MOLT-4
# [43] = tested on: A549
# [44] = tested on: SK-OV-3
# [45] = tested on: Hs-578T
# [46] = tested on: SK-MEL-2
# [47] = tested on: OVCAR-5
# [48] = tested on: SR
# [49] = tested on: SNB-75
# [50] = tested on: 786-0
# [51] = tested on: SNB-19
# [52] = tested on: M14
# [53] = tested on: TK-10
# [54] = tested on: HCT-116
# [55] = tested on: RXF 393
# [56] = tested on: HL-60
# [57] = tested on: HOP-92
# [58] = tested on: CCRF-CEM
# [59] = tested on: HCC 2998
smiles,measurement,setting,value
OCC(CCc1c[nH]c2ccccc12)c1c[nH]c2ccccc12 (configuration not stated),GI50,[1],14.7 µM (inactive)
same,GI50,[2],18.4 µM (inactive)
same,GI50,[3],16.7 µM (inactive)
same,GI50,[4],16.7 µM (inactive)
same,GI50,[5],27 µM (inactive)
same,GI50,[6],17 µM (inactive)
same,GI50,[7],18 µM (inactive)
same,GI50,[8],20.7 µM (inactive)
same,GI50,[9],15.7 µM (inactive)
same,GI50,[10],17.5 µM (inactive)
same,GI50,[11],18.1 µM (inactive)
same,GI50,[12],17.3 µM (inactive)
same,GI50,[13],27.3 µM (inactive)
same,GI50,[14],16.5 µM (inactive)
same,GI50,[15],20.5 µM (inactive)
same,GI50,[16],12.6 µM (inactive)
same,GI50,[17],14.7 µM
same,GI50,[18],15.5 µM (inactive)
same,GI50,[19],16 µM (inactive)
same,GI50,[20],14.1 µM (inactive)
same,GI50,[21],15.6 µM (inactive)
same,GI50,[22],17.2 µM (inactive)
same,GI50,[23],16.7 µM (inactive)
same,GI50,[24],18.4 µM (inactive)
same,GI50,[25],17.9 µM (inactive)
same,GI50,[26],11.6 µM (inactive)
same,GI50,[27],16.7 µM (inactive)
same,GI50,[28],12.7 µM (inactive)
same,GI50,[29],17.9 µM (inactive)
same,GI50,[30],16 µM (inactive)
same,GI50,[31],15.9 µM (inactive)
same,GI50,[32],15.2 µM (inactive)
same,GI50,[33],26.1 µM (inactive)
same,GI50,[34],14.1 µM (inactive)
same,GI50,[35],14.3 µM (inactive)
same,GI50,[36],18.2 µM (inactive)
same,GI50,[37],17 µM (inactive)
same,GI50,[38],20.5 µM (inactive)
same,GI50,[39],16.8 µM (inactive)
same,GI50,[40],16.9 µM (inactive)
same,GI50,[41],14.6 µM (inactive)
same,GI50,[42],14.5 µM (inactive)
same,GI50,[43],17.6 µM (inactive)
same,GI50,[44],30.5 µM (inactive)
same,GI50,[45],20.8 µM (inactive)
same,GI50,[46],16.5 µM (inactive)
same,GI50,[47],17.4 µM (inactive)
same,GI50,[48],12.1 µM (inactive)
same,GI50,[49],19.7 µM (inactive)
same,GI50,[50],16 µM (inactive)
same,GI50,[51],16.7 µM (inactive)
same,GI50,[52],15.3 µM (inactive)
same,GI50,[53],19.6 µM (inactive)
same,GI50,[54],15.5 µM (inactive)
same,GI50,[55],15.3 µM (inactive)
same,GI50,[56],8.95 µM (inactive)
same,GI50,[57],15.2 µM (inactive)
CC(=O)n1[nH]c(=O)n(-c2ccccc2)c1=O,GI50,[1],> 100 µM (inactive)
same,GI50,[2],> 100 µM (inactive)
same,GI50,[3],> 100 µM (inactive)
same,GI50,[4],> 100 µM (inactive)
same,GI50,[5],> 100 µM (inactive)
same,GI50,[6],> 100 µM (inactive)
same,GI50,[7],> 100 µM (inactive)
same,GI50,[8],> 100 µM (inactive)
same,GI50,[9],> 100 µM (inactive)
same,GI50,[10],> 100 µM (inactive)
same,GI50,[11],> 100 µM (inactive)
same,GI50,[12],> 100 µM (inactive)
same,GI50,[13],> 100 µM (inactive)
same,GI50,[14],> 100 µM (inactive)
same,GI50,[15],> 100 µM (inactive)
same,GI50,[16],> 100 µM (inactive)
same,GI50,[17],> 100 µM
same,GI50,[58],> 100 µM (inactive)
same,GI50,[18],> 100 µM (inactive)
same,GI50,[19],> 100 µM (inactive)
same,GI50,[20],> 100 µM (inactive)
same,GI50,[21],> 100 µM (inactive)
same,GI50,[22],> 100 µM (inactive)
same,GI50,[23],> 100 µM (inactive)
same,GI50,[25],> 100 µM (inactive)
same,GI50,[26],> 100 µM (inactive)
same,GI50,[27],> 100 µM (inactive)
same,GI50,[28],> 100 µM (inactive)
same,GI50,[29],> 100 µM (inactive)
same,GI50,[30],> 100 µM (inactive)
same,GI50,[31],> 100 µM (inactive)
same,GI50,[33],> 100 µM (inactive)
same,GI50,[34],> 100 µM (inactive)
same,GI50,[35],> 100 µM (inactive)
same,GI50,[36],> 100 µM (inactive)
same,GI50,[37],> 100 µM (inactive)
same,GI50,[38],> 100 µM (inactive)
same,GI50,[39],> 100 µM (inactive)
same,GI50,[40],> 100 µM (inactive)
same,GI50,[41],> 100 µM (inactive)
same,GI50,[42],> 100 µM (inactive)
same,GI50,[43],> 100 µM (inactive)
same,GI50,[44],> 100 µM (inactive)
same,GI50,[45],> 100 µM (inactive)
same,GI50,[46],> 100 µM (inactive)
same,GI50,[47],> 100 µM (inactive)
same,GI50,[48],> 100 µM (inactive)
same,GI50,[50],> 100 µM (inactive)
same,GI50,[51],> 100 µM (inactive)
same,GI50,[52],> 100 µM (inactive)
same,GI50,[53],> 100 µM (inactive)
same,GI50,[54],> 100 µM (inactive)
same,GI50,[55],> 100 µM (inactive)
same,GI50,[56],> 100 µM (inactive)
same,GI50,[59],> 100 µM (inactive)
O=C(CCc1ccc(O)cc1)NCCCNC(=O)CCc1ccc(O)cc1,GI50,[2],> 100 µM (inactive)
same,GI50,[3],> 100 µM (inactive)
same,GI50,[4],> 100 µM (inactive)
same,GI50,[5],> 100 µM (inactive)
same,GI50,[6],> 100 µM (inactive)
same,GI50,[7],> 100 µM (inactive)
same,GI50,[8],> 100 µM (inactive)
same,GI50,[9],> 100 µM (inactive)
same,GI50,[10],> 100 µM (inactive)
same,GI50,[11],> 100 µM (inactive)
same,GI50,[12],> 100 µM (inactive)
same,GI50,[13],> 100 µM (inactive)
same,GI50,[14],> 100 µM (inactive)
same,GI50,[15],> 100 µM (inactive)
same,GI50,[16],> 100 µM (inactive)
same,GI50,[17],> 100 µM
same,GI50,[58],> 100 µM (inactive)
same,GI50,[18],> 100 µM (inactive)
same,GI50,[19],> 100 µM (inactive)
same,GI50,[20],> 100 µM (inactive)
same,GI50,[21],> 100 µM (inactive)
same,GI50,[22],> 100 µM (inactive)
same,GI50,[23],> 100 µM (inactive)
same,GI50,[24],> 100 µM (inactive)
same,GI50,[25],> 100 µM (inactive)
same,GI50,[26],> 100 µM (inactive)
same,GI50,[27],> 100 µM (inactive)
same,GI50,[28],> 100 µM (inactive)
same,GI50,[29],> 100 µM (inactive)
same,GI50,[30],> 100 µM (inactive)
same,GI50,[31],> 100 µM (inactive)
same,GI50,[32],> 100 µM (inactive)
same,GI50,[33],> 100 µM (inactive)
same,GI50,[34],> 100 µM (inactive)
same,GI50,[35],> 100 µM (inactive)
same,GI50,[36],> 100 µM (inactive)
same,GI50,[37],> 100 µM (inactive)
same,GI50,[38],> 100 µM (inactive)
same,GI50,[39],> 100 µM (inactive)
same,GI50,[40],> 100 µM (inactive)
same,GI50,[41],> 100 µM (inactive)
same,GI50,[42],> 100 µM (inactive)
same,GI50,[43],> 100 µM (inactive)
same,GI50,[44],> 100 µM (inactive)
same,GI50,[45],> 100 µM (inactive)
same,GI50,[46],> 100 µM (inactive)
same,GI50,[47],> 100 µM (inactive)
same,GI50,[48],> 100 µM (inactive)
same,GI50,[49],24.7 µM (inactive)
same,GI50,[50],> 100 µM (inactive)
same,GI50,[51],> 100 µM (inactive)
same,GI50,[52],> 100 µM (inactive)
same,GI50,[54],> 100 µM (inactive)
same,GI50,[55],> 100 µM (inactive)
same,GI50,[59],> 100 µM (inactive)
